Reference: ChEMBL document CHEMBL3045583, “Increasing antitumor activity in vivo by enhancing acridine dimer solubility with salt preparations” (Med Chem Res, 2010)
Blank lines part the entries; values can stand above or below the compound they belong to. Active and inactive are the calls of the source. No cut-off for these calls is given here.

What was measured:
[1] = Solubility of compound in saline at 1 mg/ml; format: physicochemical; conditions: buffer
[2] = Solubility of compound in methanol at 1 mg/ml; format: physicochemical
[3] = Solubility of compound in water at 1 mg/ml; format: physicochemical; conditions: buffer
COLO 205 [4] = assay: Antitumor activity against Homo sapiens (human) COLO205 xenografted in SCID mouse assessed as inhibition of tumor growth at 2.5 to 10 mg/kg, iv twice daily for 3 days for 2 administered as solution in water; format: functional, organism-based
COLO 205 [5] = assay: Antitumor activity against Homo sapiens (human) COLO205 xenografted in SCID mouse assessed as tumor growth at 10 to 20 mg/kg, iv qd for 5 days for 2 administered as solution in 1% carboxymethy-cellulose; format: functional, organism-based
COLO 205 [6] = assay: Antitumor activity against Homo sapiens (human) COLO205 xenografted in SCID mouse assessed as tumor growth at 5 to 20 mg/kg, ip 4 times daily for 3 days administered as solution in 1% carboxymethy-cellulose; format: functional, organism-based
COLO 205 [7] = assay: Antitumor activity against Homo sapiens (human) COLO205 xenografted in SCID mouse assessed as tumor growth at 1 to 5 mg/kg, iv twice daily for 3 days for 2 administered as solution in 2.5% cremophor; format: functional, organism-based
COLO 205 [8] = assay: Antitumor activity against Homo sapiens (human) COLO205 xenografted in SCID mouse assessed as inhibition of tumor growth at 7.5 to 10 mg/kg, iv twice daily for 3 days for 2 administered as solution in 2.5% cremophor; format: functional, organism-based
[9] = Solubility of compound in water at 0.8 mg/ml; format: physicochemical; conditions: buffer
[10] = Solubility of compound in saline at 0.4 mg/ml; format: physicochemical; conditions: buffer
[11] = Solubility of compound in methanol at 3.3 mg/ml; format: physicochemical
[12] = Solubility of compound in water at 8 mg/ml; format: physicochemical; conditions: buffer

SMILES: COc1ccc2nc3cc(Cl)ccc3c(NCCCNCCCNc3c4ccc(Cl)cc4nc4ccc(OC)cc34)c2c1 [listing 2 of 2 here]
TGI (COLO 205 [4]): Active
Activity (COLO 205 [5]): inactive
Activity (COLO 205 [6]): inactive
Activity (COLO 205 [7]): inactive
TGI (COLO 205 [8]): Active

SMILES: COc1ccc2nc3cc(Cl)ccc3c(NCCCNCCCNc3c4ccc(Cl)cc4nc4ccc(OC)cc34)c2c1.CS(=O)(=O)O
solubility [9]: Insoluble
solubility [1]: Insoluble
solubility [2]: soluble

SMILES: COc1ccc2nc3cc(Cl)ccc3c(NCCCNCCCNc3c4ccc(Cl)cc4nc4ccc(OC)cc34)c2c1.O=C(O)C(F)(F)F.O=C(O)C(F)(F)F.O=C(O)C(F)(F)F
solubility [3]: Insoluble
solubility [10]: soluble
solubility [11]: soluble

The remaining lines, values ahead:

solubility [1]: Insoluble
solubility [2]: soluble
solubility [3]: Insoluble
SMILES: COc1ccc2nc3cc(Cl)ccc3c(NCCCNCCCNc3c4ccc(Cl)cc4nc4ccc(OC)cc34)c2c1 [listing 1 of 2 here]

solubility [1]: Insoluble
solubility [2]: soluble
solubility [12]: soluble
SMILES: CC(=O)O.CC(=O)O.CC(=O)O.COc1ccc2nc3cc(Cl)ccc3c(NCCCNCCCNc3c4ccc(Cl)cc4nc4ccc(OC)cc34)c2c1
